Data reported in patent US12690589B2, “Herbicidal compositions comprising pyroxasulfone” (BASF SE, priority 2024, dated 2026).

Assays:
Assay in all cases: Post-emergence application in field trials, herbicidal activity (damage scale 0 to 100%)
Format in all cases: in vivo
[1] = system: Amaranthus retroflexus (AMARE); conditions: AMARE, growth stage 31-49, height 10-12 cm
Outline: (§1)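 Field sites with natural or seeded weeds were sprayed post-emergence via flat fan nozzles in 200 l/ha water plus 0.25 v/v % MSO adjuvant, solo or mixed with pyroxasulfone and other partners. Damage was scored 0–100% versus untreated plants at indicated DAT. Colby expected values were used to judge synergy.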

[2] = system: Lolium multiflorum (LOLMU)
Outline: as §1

[3] = system: Hordeum vulgare (HORVW)
Outline: as §1

[4] = system: Echinochloa crus-galli (ECHCG)
Description: In the examples below, using the method of S. R. Colby (1967) “Calculating synergistic and antagonistic responses of herbicide combinations”, Weeds 15, p. 22ff., the value E, which is expected if the activity of the individual active compounds is only additive, was calculated:
[formula] • wherein • X=percent activity using active herbicide A at an application rate a; • Y=percent activity using active herbicide B (e.g. pyroxasulfone) at an application rate b; • E=expected activity (in %) by A+B at application rates a+b.
If the value found experimentally is higher than the value E calculated according to Colby, a synergistic effect is present.
On field test sites, natural weed infestation or seeded weeds were treated post-emergence of the weeds.
In the field trials, the weeds were treated as indicated below.
In the following experiments, the herbicidal activity for the individual herbicidal compositions (solo and mixture applications) was assessed at the indicated days after treatment (DAT). The assessments for the damage on undesired weeds caused by the composition was carried out using a scale from 0 to 100%, compared to the untreated control plants. Here, 0 means no damage and 100 means complete destruction of the plants.
Herbicide A-1 (50 g/l) and pyroxasulfone (85% WG) were, together with addition of 0.5% MSO (methylated seed oil) as adjuvant, formulated in water as distribution medium (water volume 200 l/ha) and sprayed with commercial flat fan nozzles.

Cn1nc(C(F)(F)F)c(CS(=O)(=O)C2=NOC(C)(C)C2)c1OC(F)F [B, pyroxasulfone]
% Herbicidal activity ([1]; B 70 g ai/ha, 7 DAT, Table 4.1): 0%
% Herbicidal activity ([1]; B 70 g ai/ha, 21 DAT, Table 4.3): 0%
% Herbicidal activity ([1]; B 90 g ai/ha, 7 DAT, Table 4.1): 0%
% Herbicidal activity ([1]; B 90 g ai/ha, 21 DAT, Table 4.3): 0%
% Herbicidal activity ([2]; 7 DAT, stage 22-25, height 20-25 cm, g ai/ha A-1 12.5, B 70, C-12 252): 10%
% Herbicidal activity ([2]; 7 DAT, stage 22-25, height 20-25 cm, g ai/ha A-1 18, B 70, C-12 252): 10%
% Herbicidal activity ([2]; 7 DAT, stage 22-25, height 20-25 cm, g ai/ha A-1 18, B 90, C-12 252): 10%
% Herbicidal activity ([2]; 21 DAT, stage 22-25, height 20-25 cm, g ai/ha A-1 12.5, B 70, C-12 252): 10%
% Herbicidal activity ([2]; 21 DAT, stage 22-25, height 20-25 cm, g ai/ha A-1 18, B 70, C-12 252): 10%
% Herbicidal activity ([2]; 21 DAT, stage 22-25, height 20-25 cm, g ai/ha A-1 18, B 90, C-12 252): 10%
% Herbicidal activity ([2]; 28 DAT, stage 22-25, height 20-25 cm, g ai/ha A-1 12.5, B 70, C-12 252): 10%
% Herbicidal activity ([2]; 28 DAT, stage 22-25, height 20-25 cm, g ai/ha A-1 18, B 70, C-12 252): 10%
% Herbicidal activity ([2]; 28 DAT, stage 22-25, height 20-25 cm, g ai/ha A-1 18, B 90, C-12 252): 10%
% Herbicidal activity ([2]; LOLMU, growth stage 22-25, height 20-25 cm, B 70 g ai/ha, 21 DAT, Table 4.4): 20%
% Herbicidal activity ([2]; LOLMU, growth stage 22-25, height 20-25 cm, B 90 g ai/ha, 7 DAT, Table 4.2): 10%
% Herbicidal activity ([2]; LOLMU, growth stage 22-25, height 20-25 cm, B 90 g ai/ha, 21 DAT, Table 4.4): 10%
% Herbicidal activity ([3]; 7 DAT, stage 23-29, height 20-25 cm, g ai/ha A-1 12.5, B 70, C-12 252): 0%
% Herbicidal activity ([3]; 7 DAT, stage 23-29, height 20-25 cm, g ai/ha A-1 18, B 70, C-12 252): 0%
% Herbicidal activity ([3]; 7 DAT, stage 23-29, height 20-25 cm, g ai/ha A-1 18, B 90, C-12 252): 0%
% Herbicidal activity ([3]; 21 DAT, stage 23-29, height 20-25 cm, g ai/ha A-1 12.5, B 70, C-12 252): 0%
% Herbicidal activity ([3]; 21 DAT, stage 23-29, height 20-25 cm, g ai/ha A-1 18, B 70, C-12 252): 0%
% Herbicidal activity ([3]; 21 DAT, stage 23-29, height 20-25 cm, g ai/ha A-1 18, B 90, C-12 252): 0%
% Herbicidal activity ([3]; 28 DAT, stage 23-29, height 20-25 cm, g ai/ha A-1 12.5, B 70, C-12 252): 0%
% Herbicidal activity ([3]; 28 DAT, stage 23-29, height 20-25 cm, g ai/ha A-1 18, B 70, C-12 252): 0%
% Herbicidal activity ([3]; 28 DAT, stage 23-29, height 20-25 cm, g ai/ha A-1 18, B 90, C-12 252): 0%
% Herbicidal activity ([3]; HORVW, growth stage 23-29, height 20-25 cm, B 70 g ai/ha, 7 DAT, Table 4.2): 0%
% Herbicidal activity ([3]; HORVW, growth stage 23-29, height 20-25 cm, B 70 g ai/ha, 21 DAT, Table 4.4): 0%
% Herbicidal activity ([3]; HORVW, growth stage 23-29, height 20-25 cm, B 70 g ai/ha, 28 DAT, Table 4.5): 0%
% Herbicidal activity ([3]; HORVW, growth stage 23-29, height 20-25 cm, B 90 g ai/ha, 7 DAT, Table 4.2): 0%
% Herbicidal activity ([3]; HORVW, growth stage 23-29, height 20-25 cm, B 90 g ai/ha, 21 DAT, Table 4.4): 0%
% Herbicidal activity ([3]; HORVW, growth stage 23-29, height 20-25 cm, B 90 g ai/ha, 28 DAT, Table 4.5): 0%
% Herbicidal activity ([4]; 7 DAT, stage 23-30, height 15-20 cm, g ai/ha A-1 12.5, B 70, C-12 252): 10%
% Herbicidal activity ([4]; 21 DAT, stage 23-30, height 15-20 cm, g ai/ha A-1 12.5, B 70, C-12 252): 10%
% Herbicidal activity ([4]; 28 DAT, stage 23-30, height 15-20 cm, g ai/ha A-1 12.5, B 70, C-12 252): 10%
% Herbicidal activity ([4]; ECHCG, height 20-25 cm, B 120 g ai/ha, 21 DAT, Table 2.3): 0%
% Herbicidal activity ([4]; Table 8.2, 21 DAT, stage 23-30, height 15-20 cm, g ai/ha A-1 18, B 70, C-12 1066): 0%
% Herbicidal activity ([4]; Table 8.2, 21 DAT, stage 23-30, height 15-20 cm, g ai/ha A-1 18, B 90, C-12 1066): 0%
% Herbicidal activity ([4]; Table 8.3, 28 DAT, stage 23-30, height 15-20 cm, g ai/ha A-1 18, B 70, C-12 1066): 0%
% Herbicidal activity ([4]; Table 8.3, 28 DAT, stage 23-30, height 15-20 cm, g ai/ha A-1 18, B 90, C-12 1066): 0%
